“Also recorded” adds a separate entry of the source.
System: c-Met in Snu5 gastric carcinoma cells
Assay: Inhibition of c-Met activity in Snu5 gastric carcinoma cells (Snu5-AP1-Luc-Pest luciferase signal)
Format: cell-based, human
Conditions: for IC50: Homo sapiens, SNU-5, Snu5-AP1-Luc-Pest cells, 6 hours, Steady Glo luminescence; for activity compared with corresponding analog wherein R5 is hydrogen: Snu5 gastric carcinoma cell assay, comparison of IC50 values
Excerpt: Compounds of the invention were also screened for their ability to inhibit the Luciferase-induced signal in an engineered Snu5 cell line. Snu5 [obtained from American Type Culture Collection (Catalog number CRL-5973)] is a human gastric carcinoma known to overexpress c-Met, which is constitutively active. The cell line was transduced with the retrovirus, pCLPCX, which contains a genetic construct consisting of 6×AP1 promoter response elements and a luciferase gene having a C-terminal PEST sequence (proteolytic signal from mouse ornithine decarboxylase, which reduces the half-life of the luciferase). The constitutively active cMet activates cellular pathways (principally MAP kinase), resulting in AP-1-induced transcription of luciferase-PEST and translation into the final product, the activity of which is quantifiable as a chemiluminescent readout upon the addition of luciferin (Steady-Glo from Promega.). Residual luminescence is strongly correlated to the inhibition of c-Met. A stable cell line was obtained by selecting the new cell line (Snu5-AP1-Luc-Pest) with puromycin. The cells were grown in complete media [Iscove's media (Invitrogen) containing 10% fetal bovine serum (FBS, Hyclone) and penicillin/gentamycin (Invitrogen)]. Compounds of the invention were dissolved in DMSO to make 10 mM initial stock solutions. Serial dilutions in DMSO were then made and transferred to complete medium to make a 10× solution. The Snu5-AP1-Luc-Pest cells were counted and diluted to 200,000-cells/mL solution. The cells (90 μL) were added to each well in a 96-well black with clear bottom plate (Costar). Then 10 μL of the 10× compound solution was added to the cells in triplicate. The plates were incubated in a 37° C./5% CO2 incubator. After 6 hours, 50 μL of the Steady Glo reagent (Promega) was added to each well and placed on a plate shaker for 5 minutes to ensure that the cells were completely lysed. The plate was read on a 1450 Microbeta Liquid Scintillation and Luminescence Counter (Perkin-Elmer). The IC50s were calculated using a 4-parameter fit using the graphing software Prism (GraphPad).

For `COc1cc(F)c(-n2nnnc2-c2cc(-c3cc4c(s3)CCNCC4)cnc2N)c(F)c1` [Compound 54], the IC50 was 100 to 1000 nM.
`COCCOc1ccc(-n2nnnc2-c2cc(-c3cnn(C4CCNCC4)c3)cnc2N)c(F)c1F` [Compound 35] gave an IC50 of 100 to 1000 nM.
In the case of `CCC1Cc2sc(-c3cnc(N)c(-c4nnnn4-c4ccc(OC)c(F)c4F)c3)cc2CCN1` (centres unmarked) [Compound 19], the IC50 is reported as no more than 100 nM and the “activity compared with corresponding analog wherein R5 is hydrogen” value is reported as “more active”.
In the case of `Cc1ccc(-n2nnnc2-c2cc(-c3cc4c(s3)CCNCC4)cnc2N)c(F)c1F` [Compound 13, 3-(1-(2,3-Difluoro-4-methylphenyl)-1H-tetrazol-5-yl)-5-(5,6,7,8-tetrahydro-4H-thieno[2,3-d]azepin-2-yl)pyridin-2-amine], the IC50 is reported as no more than 100 nM and the “activity compared with corresponding analog wherein R5 is hydrogen” value is reported as “more active”.
`COc1ccc(-n2nnnc2-c2cc(-c3cc(C)c(C4CCCNC4)s3)cnc2N)c(F)c1F` (centres unmarked) [Compound 66] showed an IC50 of no more than 100 nM.
With `Cc1ccc(-n2nnnc2-c2cc(-c3cnn([C@@H]4CCCNC4)c3)cnc2N)c(F)c1F` [Compound 2] the IC50 was no more than 100 nM and the “activity compared with corresponding analog wherein R5 is hydrogen” value was “more active”.
With `COc1ccc(-n2nnnc2-c2cc(-c3cc4c(s3)CCNC(C)C4)cnc2N)c(F)c1F` (centres unmarked) [Compound 27] the IC50 was no more than 100 nM and the “activity compared with corresponding analog wherein R5 is hydrogen” value was “more active”.
Compound `COc1ccc(-n2nnnc2-c2cc(-c3cnn(C4CCNCC4)c3)cnc2N)c(F)c1` [Compound 50] has an IC50 of 100 to 1000 nM.
For `COc1ccc(-n2nnnc2-c2cc(-c3cc4c(s3)CNCCC4)cnc2N)c(F)c1F` [Compound 20], the IC50 was 100 to 1000 nM.
With `CCCOc1ccc(-n2nnnc2-c2cc(-c3cnn(C4CCNCC4)c3)cnc2N)c(F)c1F` [Compound 34] the IC50 was no more than 100 nM.
With `Cc1ccc(-n2nnnc2-c2cc(-c3cnn([C@H]4CCNC4)c3)cnc2N)c(F)c1F` [Compound 7] the IC50 was 100 to 1000 nM and the “activity compared with corresponding analog wherein R5 is hydrogen” value was “more active”.
For `COCc1ccc(-n2nnnc2-c2cc(-c3cnn(C4CCNCC4)c3)cnc2N)c(F)c1F` [Compound 65], the IC50 was 100 to 1000 nM.
In the case of `Cc1ccc(-n2nnnc2-c2cc(-c3cnn(C4CCCNCC4)c3)cnc2N)c(F)c1F` (centres unmarked) [Compound 3], the IC50 is reported as no more than 100 nM and the “activity compared with corresponding analog wherein R5 is hydrogen” value is reported as “more active”.
`Cc1cc(-c2cnc(N)c(-c3nnnn3-c3ccc(C)c(F)c3F)c2)sc1C1CCCNC1` (centres unmarked) [Compound 67] was tested, and the IC50 was no more than 100 nM.
In the case of `COc1ccc(-n2nnnc2-c2cc(-c3sc(C4CCNCC4)cc3C)cnc2N)c(F)c1F` [Compound 32], the IC50 is reported as no more than 100 nM and the “activity compared with corresponding analog wherein R5 is hydrogen” value is reported as “more active”.
`CC(C)Oc1ccc(-n2nnnc2-c2cc(-c3cnn(C4CCNCC4)c3)cnc2N)c(F)c1F` [Compound 26] was tested, and the IC50 was no more than 100 nM.
With `COc1ccc(-n2nnnc2-c2cc(-c3cnn([C@H]4CCNC4)c3)cnc2N)c(F)c1F` [Compound 6] the IC50 was no more than 100 nM and the “activity compared with corresponding analog wherein R5 is hydrogen” value was “more active”.
`Cc1ccc(-n2nnnc2-c2cc(-c3cn(C4CCNCC4)nc3C)cnc2N)c(F)c1F` [Compound 45] gave an IC50 of no more than 100 nM.
In the case of `COc1ccc(-n2nnnc2-c2cc(-c3cnn(C4CC5CCC(C4)N5)c3)cnc2N)c(F)c1F` (centres unmarked) [Compound 17], the “activity compared with corresponding analog wherein R5 is hydrogen” value is reported as “more active”.
`COc1cc(F)c(-n2nnnc2-c2cc(-c3cnn(C4CCNCC4)c3)cnc2N)c(F)c1` [Compound 37] gave an IC50 of no more than 100 nM.
Work on `Cc1ccc(-n2nnnc2-c2cc(-c3cnn(C4CCNCC4)c3)cnc2N)cc1Cl` [Compound 40] yielded an IC50 greater than 1000 nM.
`Cc1ccc(-n2nnnc2-c2cc(-c3cnn(C4CCNCC4)c3)cnc2N)c(F)c1F` [Compound 11, 3-(1-(2,3-Difluoro-4-methylphenyl)-1H-tetrazol-5-yl)-5-(1-(piperidin-4-yl)-1H-pyrazol-4-yl)pyridin-2-amine] was tested, and the IC50 was 100 to 1000 nM and the “activity compared with corresponding analog wherein R5 is hydrogen” value was “more active”.
Work on `CC(C)Oc1ccc(-n2nnnc2-c2cc(-c3cc4c(s3)CCNCC4)cnc2N)c(F)c1F` [Compound 33] yielded an IC50 of no more than 100 nM.
Work on `COc1ccc(-n2nnnc2-c2cc(-c3cn(C4CCCNCC4)nc3C)cnc2N)c(F)c1F` (centres unmarked) [Compound 44] yielded an IC50 of no more than 100 nM.
`COc1ccc(-n2nnnc2-c2cc(-c3cnn([C@@H]4CCNC4)c3)cnc2N)c(F)c1F` [Compound 4] was tested, and the IC50 was no more than 100 nM and the “activity compared with corresponding analog wherein R5 is hydrogen” value was “more active”.
In the case of `COc1ccc(-n2nnnc2-c2cc(-c3cn(C4CCNCC4)nc3C)cnc2N)c(F)c1F` [Compound 18], the IC50 is reported as no more than 100 nM and the “activity compared with corresponding analog wherein R5 is hydrogen” value is reported as “more active”.
`CCOc1ccc(-n2nnnc2-c2cc(-c3cnn(C4CCNCC4)c3)cnc2N)c(F)c1F` [Compound 25] gave an IC50 of no more than 100 nM.
Compound `Cc1ccc(-n2nnnc2-c2cc(-c3cc4c(s3)CCNCC4)cnc2N)c(F)c1` [Compound 42] has an IC50 of 100 to 1000 nM.
`COc1ccc(-n2nnnc2-c2cc(-c3cc4c(s3)CCNCC4C)cnc2N)c(F)c1F` (centres unmarked) [Compound 14] was tested, and the IC50 was no more than 100 nM and the “activity compared with corresponding analog wherein R5 is hydrogen” value was “more active”.
In the case of `Cc1cc(-c2cnc(N)c(-c3nnnn3-c3ccc(C)c(F)c3F)c2)sc1C1CCNCC1` [Compound 24], the IC50 is reported as no more than 100 nM and the “activity compared with corresponding analog wherein R5 is hydrogen” value is reported as “more active”.
Work on `Cc1ccc(-n2nnnc2-c2cc(-c3cc4c(s3)CCNCC4)cnc2N)c(Cl)c1` [Compound 39] yielded an IC50 of 100 to 1000 nM.
`COc1ccc(-n2nnnc2-c2cc(-c3cnn([C@H]4CCCNC4)c3)cnc2N)c(F)c1F` [Compound 10] was tested, and the IC50 was no more than 100 nM and the “activity compared with corresponding analog wherein R5 is hydrogen” value was “more active”.
Compound `Cc1ccc(-n2nnnc2-c2cc(-c3cnn(C4C[C@H]5CNC[C@H]5C4)c3)cnc2N)c(F)c1F` (some centres unmarked) [Compound 48] has an IC50 of 100 to 1000 nM.
With `Cc1cc(C2CCNCC2)sc1-c1cnc(N)c(-c2nnnn2-c2ccc(C)c(F)c2F)c1` [Compound 31] the IC50 was 100 to 1000 nM and the “activity compared with corresponding analog wherein R5 is hydrogen” value was “more active; also recorded: the unsubstituted compound has a lower IC50 value”.
`CCCOc1ccc(-n2nnnc2-c2cc(-c3cc4c(s3)CCNCC4)cnc2N)c(F)c1F` [Compound 23] gave an IC50 of no more than 100 nM.
For `COc1ccc(-n2nnnc2-c2cc(-c3cc4c(s3)CCCNC4)cnc2N)c(F)c1F` [Compound 21], the IC50 was 100 to 1000 nM and the “activity compared with corresponding analog wherein R5 is hydrogen” value was “more active”.
`Cc1ccc(-n2nnnc2-c2cc(-c3cnn(C4CCNCC4)c3)cnc2N)c(F)c1` [Compound 41] gave an IC50 of 100 to 1000 nM.
`Cc1ccc(-n2nnnc2-c2cc(-c3cn(C4CCNCC4)nc3C(F)(F)F)cnc2N)c(F)c1F` [Compound 47] showed an IC50 of 100 to 1000 nM.
`COc1ccc(-n2nnnc2-c2cc(-c3cc4c(s3)CCNCC4)cnc2N)c(F)c1` [Compound 51] gave an IC50 of 100 to 1000 nM.
With `COc1ccc(-n2nnnc2-c2cc(-c3cnn(C4CC5CCC(C4)N5)c3)cnc2N)c(F)c1F` (centres unmarked) [Compound 16] the IC50 was no more than 100 nM and the “activity compared with corresponding analog wherein R5 is hydrogen” value was “more active”.
`Cc1ccc(-n2nnnc2-c2cc(-c3cnn([C@@H]4CCNC4)c3)cnc2N)c(F)c1F` [Compound 1] was tested, and the IC50 was 100 to 1000 nM and the “activity compared with corresponding analog wherein R5 is hydrogen” value was “more active”.
For `COc1ccc(-n2nnnc2-c2cc(-c3cnn([C@@H]4CCCNC4)c3)cnc2N)c(F)c1F` [Compound 8, 3-(1-(2,3-Difluoro-4-methoxyphenyl)-1H-tetrazol-5-yl)-5-(1-((R)-piperidin-3-yl)-1H-pyrazol-4-yl)pyridin-2-amine], the IC50 was no more than 100 nM and the “activity compared with corresponding analog wherein R5 is hydrogen” value was “more active”.
`COc1ccc(-n2nnnc2-c2cc(-c3cnn(C4CCCNCC4)c3)cnc2N)c(F)c1F` (centres unmarked) [Compound 9] was tested, and the IC50 was 100 to 1000 nM.
`COc1ccc(-n2nnnc2-c2cc(-c3cn(C4CCNCC4)nc3C(F)(F)F)cnc2N)c(F)c1F` [Compound 36] was tested, and the IC50 was no more than 100 nM and the “activity compared with corresponding analog wherein R5 is hydrogen” value was “more active”.
In the case of `COc1ccc(-n2nnnc2-c2cc(-c3cc4c(s3)CCNCC4)cnc2N)c(F)c1F` [Compound 15], the IC50 is reported as no more than 100 nM and the “activity compared with corresponding analog wherein R5 is hydrogen” value is reported as “more active”.
For `COc1ccc(-n2nnnc2-c2cc(-c3cc4c(s3)CCNCC4(C)C)cnc2N)c(F)c1F` [Compound 29], the IC50 was no more than 100 nM and the “activity compared with corresponding analog wherein R5 is hydrogen” value was “more active”.
`COc1ccc(-n2nnnc2-c2cc(-c3cc(C)c(C4CCNCC4)s3)cnc2N)c(F)c1F` [Compound 22, 3-(1-(2,3-Difluoro-4-methoxyphenyl)-1H-tetrazol-5-yl)-5-(4-methyl-5-(piperidin-4-yl)thiophen-2-yl)pyridin-2-amine] was tested, and the IC50 was no more than 100 nM and the “activity compared with corresponding analog wherein R5 is hydrogen” value was “more active”.
With `Cc1ccc(-n2nnnc2-c2cc(-c3cc4c(s3)CCNCC4(C)C)cnc2N)c(F)c1F` [Compound 30] the IC50 was no more than 100 nM and the “activity compared with corresponding analog wherein R5 is hydrogen” value was “more active”.
With `COc1ccc(-n2nnnc2-c2cc(-c3cnn(C4CCNCC4)c3)cnc2N)c(F)c1F` [Compound 12, 3-(1-(2,3-difluoro-4-methoxyphenyl)-1H-tetrazol-5-yl)-5-(1-(piperidin-4-yl)-1H-pyrazol-4-yl)pyridin-2-amine] the IC50 was 100 to 1000 nM and the “activity compared with corresponding analog wherein R5 is hydrogen” value was “more active”.
